From PMC6826492, “Experimental and Computational Study of the Antioxidative Potential of Novel Nitro and Amino Substituted Benzimidazole/Benzothiazole-2-Carboxamides with Antiproliferative Activity” (Antioxidants, 2019)
Where two headings read alike, the source gives them in different places.

Key:
HCT116 cell line [1] = assay: Cellular ROS measurement assay (DCFH-DA, flow cytometry); format: cell-based, human; conditions: HCT116, 10 µM compounds (2 mM H2O2 positive control), 1 h, DCF-DA; *** p < 0.001, ns not significant
Description: Figure S53. Impact of compounds on cellular ROS production was measured with fluorescent dye DCF-DA in HCT116 cell line, after the treatment with 10 µM compounds for 1h. H 2O2 was used as a positive control. Data presented here are the results of 3 independent measurements, done in duplicates. One-way ANOVA with Tukey’s post-hoc test was used for statistical analysis, ***- p < 0.001. […]
Human colon carcinoma cell line HCT116 was grown in DMEM medium with the addition of 10% fetal bovine serum (FBS), 2 mM L-glutamine, 100 U/ml penicillin and 100 µg/ml streptomycin, and cultured as monolayers at 37°C in a humidified atmosphere with 5% CO2.
Cellular ROS measurement assay
For the cellular ROS measurement assay, 2.5 × 10^4 cells were seeded into 96-well microtiter plates 24h prior to experiment. Next day, cells were trypsinized and incubated in FBS-free DMEM medium with 20 µM DCFH-DA fluorescence dye for 45 minutes. After the incubation, compounds were added without washing and cells were treated with 2 mM H 2O2 as a positive control and 10 µM compounds 8, 14 and 26 for 1 hour. Cells were washed in PBS and DCFH-DA signal was measured by flow cytometry, in FL1 channel. […]

[2] = tested on: HCT 116 (colon carcinoma); assay: Antiproliferative activity in vitro (MTT assay); format: cell-based, human; conditions: 72 h incubation, concentration that causes 50% growth inhibition, read-out: IC50 HCT116
Description: (§1) The experiments were performed on four human cell lines, including HCT 116 (colon carcinoma), H 460 (lung carcinoma), MCF-7 (breast carcinoma), and HEK 293 (human embryonic kidney cells), in line with previously published experimental procedures. Briefly, the cells were grown in DMEM medium with the addition of 10% fetal bovine serum (FBS), 2 mM L-glutamine, 100 U/mL penicillin, and 100 µg/mL streptomycin, and cultured as monolayers at 37 °C in a humidified atmosphere with 5% CO2. Cells were seeded at 2 × 10^3 cells/well in a standard 96-well microtiter plates and left to attach for 24 h. The next day, a test compound was added in five serial 10-fold dilutions. The rate of cell growth was evaluated after 72 h of incubation with MTT assays. The obtained results are expressed as IC50 values, calculated from the concentration-response curve using linear regression analysis by fitting the test concentrations that give PG values above and below the reference value (i.e., 50%). Each test was performed in quadruplicate in at least two individual experiments.

MCF-7 (breast carcinoma) = assay: Antiproliferative activity in vitro (MTT assay); format: cell-based, human; conditions: 72 h incubation, concentration that causes 50% growth inhibition
Description: as §1

H 460 (lung carcinoma) = assay: Antiproliferative activity in vitro (MTT assay); format: cell-based, human; conditions: 72 h incubation, concentration that causes 50% growth inhibition
Description: as §1

three human cancer cells = assay: Antiproliferative activity in vitro, range over the tumor cell lines; format: cell-based; conditions: HCT116, MCF-7, H 460
Description: as §1

[3] = tested on: HEK 293 (human embryonic kidney cells); assay: Cytotoxic activity on non-cancerous cells (MTT assay); format: cell-based; conditions: for IC50: Homo sapiens, HEK293, non-tumor cell line, 72 h incubation, MTT, concentration that causes 50% growth inhibition
Description: as §1

[4] = DPPH free radical scavenging; format: biochemical; parameters: key to DPPH IC50: –: Very low activity
Description: The reducing activity of investigated systems was achieved by the DPPH method according to previously described procedures with modifications to assure the use in a 96-well microplate. Briefly, equal volumes of various concentrations of tested molecules (dissolved in DMSO) were added to the solution of DPPH (final concentration 50 µM in absolute ethanol). Ethanol and DMSO were used as control solutions in line with earlier reports.

HCT116 cell line [5] = assay: Mitochondrial ROS measurement assay (MitoSOX, flow cytometry); format: cell-based, human; conditions: HCT116, 10 µM compounds (3 µM Rotenone positive control), 1 h, *** p < 0.001, ns not significant
[6] = Ferric reducing/antioxidant power (FRAP assay); format: biochemical; conditions: for FRAP: means ± standard deviation, absorbance at 593 nm
Description: The FRAP method was carried out according to previously described procedures with some modifications to be compatible with an assay on a 96-well microplate. All tests were done in triplicate, while the obtained results were averaged and reported as Fe^2+ equivalents (Fe^2+ µmol).
By using the FRAP assay, we investigated the reducing power of investigated systems, which was monitored by the corresponding changes in the absorbance at 593 nm. This method is based on the ability of systems to reduce the ferric tripyridyl triazine complex (TPTZ) to the ferrous state (Fe^2+), which can be seen by an intense blue color. […] Good reducing ability was shown by the trimethoxy substituted benzimidazole-2-carboxamide 14 bearing the amino group (1102.5 ± 14.1 mmolFe^2+/mmolC).

HCT 116 cells = assay: Antioxidative activity assay in cells (TBHP-induced ROS, DCFH-DA); format: cell-based, human; conditions: 100 µM TBHP + 10 µM compound, 1 h, DCFH-DA fluorescence
Description: For the antioxidative activity assay, 2.5 × 10^4 cells were seeded into 96-well microtiter plates and left to attach for 24 h. The next day, cells were washed with PBS and incubated in FBS-free DMEM medium with 25 µM DCFH-DA fluorescence dye. After 45 min of incubation, medium was discarded, and cells were washed with PBS. After the washing step, cells were incubated with 100 µM tert-Butyl hydroperoxide (TBHP) alone or in combination with antioxidative agents (50 mM N-Acetyl-L-cysteine—NAC, or 10 µM tested compounds) in PBS, for 1 h at 37 °C. DCFH-DA fluorescence was recorded on a microplate fluorimeter reader (Tecan) with excitation beam of 485 nm, while the emitted fluorescence was collected at 535 nm. All tests were presented as medians of three independent measurements, done in triplicates. One-way ANOVA with Tukey’s post-hoc test was used for statistical analysis, * p < 0.05, ** p < 0.01, *** p < 0.001.
In order to test the antioxidant activity of selected systems in tumor cells (Figure 1), we treated HCT 116 cells with tert-Butyl hydroperoxide (TBHP), a substance commonly used for inducing oxidative stress in cells and tissues, alone or in a combination with a known antioxidative agent N-Acetyl-L-cysteine (NAC) or tested compounds [35]. We measured the formation of oxidative stress by-products using 2′,7′-dichlorodihydrofluorescein diacetate (DCFH-DA). We selected system 8 showing pronounced antiproliferative/cytotoxic activity, but no antioxidant capacity in DPPH/FRAP assays, 29 showing exceptionally pronounced antioxidative activity in DPPH/FRAP tests, 14 showing negligible antiproliferative but strong antioxidant capacity in both DPPH/FRAP assays, and 26 showing similarly strong antiproliferative and radical trapping activity in DPPH assay, but rather modest reducing power in FRAP assay. None of the compounds influenced the basal level of ROS in the cells. […] On the other hand, no effect was obtained upon treatment with either 8 or 14 (Figure 1). We additionally tested the impact of the selected compounds on cellular and mitochondrial ROS production in HCT 116 cells using fluorescent dyes, DCFH-DA for cellular and MitoSOX for mitochondrial ROS detection (Supplementary Materials, Figures S53 and S54).
Figure 1 Antioxidative activity of selected systems. HCT 116 cells were treated with the combination of tert-Butyl hydroperoxide (TBHP, 100 uM) and N-Acetyl-L-cysteine (NAC, 50 mM) or tested compounds 8, 14, 26, and 29 (10 µM) for 1 h. The level of reactive oxygen species (ROS) was measured with fluorescent dye 2′,7′-dichlorodihydrofluorescein diacetate (DCFH-DA) using fluorimeter. Treatment with 100 uM TBHP alone was used as a control for ROS induction. Data presented here are the results of three independent measurements, done in triplicates. […]

[7] = DFT calculation of bond dissociation and ionization energies; conditions: difference to M12
Excerpt: All geometrical parameters were optimized employing the density functional theory (DFT) B3LYP functional (unrestricted UB3LYP for the radicals), together with the 6–31+G(d) basis set, followed by the vibrational analysis using the Gaussian 16 software. Thermal corrections were extracted from the matching uncorrected vibrational frequencies, also used to confirm the obtained structures as true minima by the lack of imaginary frequencies. The final electronic energies were refined through single-point calculations with a highly flexible 6–311++G(2df,2pd) basis set. Solvent effects were considered through the implicit SMD polarizable continuum model with all parameters for pure ethanol (ε = 24.852), giving the B3LYP/6–311++G(2df,2pd)//(SMD)/B3LYP/6–31+G(d) model employed here, being fully in line with our earlier reports. As such, all computational values correspond to differences in Gibbs free energies obtained at a room temperature of 298 K and a normal pressure of 1 atm. The choice of this computational setup was additionally prompted by its success in modeling mechanisms of various antioxidants, and in reproducing kinetic and thermodynamic parameters of a variety of organic and enzymatic reactions. According to the literature, there are several mechanisms that relate to the antioxidative properties of molecules. Here, we inspected the two most frequent, and usually thermodynamically most preferred antioxidant mechanisms, namely hydrogen atom transfer (HAT), and single electron transfer (SET) that is commonly followed by proton transfer (SET-PT). All these mechanisms result in the formation of the same antioxidant radical.
HAT is a major route where the H atom (hydrogen radical, H•) is directly transferred from an antioxidant (M) to a free radical accompanied by the homolytic M–H bond cleavage. The capacity of this process is governed by the M–H bond dissociation energy (BDE), calculated as:M–H → M• + H• BDE = G(M•) + G(H•) − G(M–H).
Scavenging the free radicals can also be accomplished by donating an electron from a system M in the SET-PT process. This process is driven by the adiabatic ionization energy (IE) necessary to eject a single electron from M, calculated as:M → M•^+ + e^− IE = G(M•^+) − G(M).

[8] = after 30 min of incubation with 100 μM DPPH

| Structure (SMILES) | cellular ROS production (significance vs control) (HCT116 cell line [1]) | IC50 ([2]; Homo sapiens, HCT-116, 72 h) [µM] | IC50 (MCF-7 (breast carcinoma); Homo sapiens, MCF7, 72 h) [µM] | IC50 (H 460 (lung carcinoma); Homo sapiens, NCI-H460, 72 h) [µM] | IC50 (three human cancer cells) [µM] | lower activity towards HEK293 cells than towards HCT116 cells (times) ([3]; HEK293 vs HCT116) | IC50 [3] [µM] | DPPH IC50 [4, 8] | mitochondrial ROS production (significance vs control) (HCT116 cell line [5]) | FRAP [6] [mmolFe^2+/mmolC] | ROS levels when oxidative stress was induced (HCT 116 cells) | antioxidant potency relative to 17 ([4]; DPPH, 14 vs 17) | IC50 [4, 8] [µM] | IC50 [2] [µM] | IC50 (MCF-7 (breast carcinoma)) [µM] | IC50 (H 460 (lung carcinoma)) [µM] | BDE increase relative to M12 [7] [kcal/mol] | FRAP reducing power in comparison to standard BHT ([6]; relative to BHT) |
| --- | --- | --- | --- | --- | --- | --- | --- | --- | --- | --- | --- | --- | --- | --- | --- | --- | --- | --- |
| COc1cc(C(=O)Nc2nc3ccc([N+](=O)[O-])cc3[nH]2)cc(OC)c1OC [Compound 8, 3,4,5-trimethoxy-N-[5(6)-nitrobenzimidazol-2-yl]benzamide] | ns | 0.6 ± 0.03 | 1 ± 0.2 | 2 ± 0.2 | 0.6 to 2 | ≈ 3 times | 2 ± 0.5 | – | ns | 89.7 ± 6.2 | no effect |  |  |  |  |  |  |  |
| COc1cc(C(=O)Nc2nc3ccc(N)cc3[nH]2)cc(OC)c1OC [Compound 14, N-[5(6)-aminobenzimidazol-2-yl]-3,4,5-trimethoxybenzamide] | ns | 76 ± 24 | 43 ± 15 | > 100 |  |  | 43 ± 2 |  | ns | 1102.5 ± 14.1 | no effect | around four times | 10.7 ± 0.23 |  |  |  |  |  |
| COc1ccccc1C(=O)Nc1nc2ccc(N)cc2s1.Cl [Compound 21, N-(6-aminobenzothiazol-2-yl)-2-methoxybenzamide hydrochloride] |  |  |  |  | 3 to 10 |  | 25 ± 1.5 |  |  | 214.3 ± 3.4 |  |  | 12 ± 1.1 | 10 ± 8 | 3 ± 0.7 | 4 ± 0.1 |  |  |
| COc1c(O)cc(C(=O)Nc2nc3ccc([N+](=O)[O-])cc3[nH]2)cc1O [Compound 26, 3,5-dihydroxy-4-methoxy-N-[5(6)-nitrobenzimidazol-2-yl]benzamide] | ns | 4 ± 0.1 | 3 ± 1 | 3 ± 0.5 |  |  | 3 ± 0.7 |  | ns | 244.9 ± 4.8 | significantly reduced the ROS levels |  | 8.1 ± 1.9 |  |  |  |  |  |
| O=C(Nc1nc2ccc([N+](=O)[O-])cc2s1)c1cc(O)c(O)c(O)c1 [Compound 29, 3,4,5-trihydroxy-N-(6-nitrobenzothiazol-2-yl)benzamide] |  | 7 ± 1 | 4 ± 0.7 | 2 ± 1 |  |  | 6 ± 4 |  |  | 6139.2 ± 3.0 | significantly reduced the ROS levels |  | 2 ± 0.15 |  |  |  | 0.8 | threefold higher |
